In patent US20230119502A1, “Collagen Nucleation Inhibitors” (Northeastern University, priority 2020, published 2023):
≈ marks a conversion by molar mass, not a printed value. Where two headings read alike, the source gives them in different places.

Columns and labels:
[1] = target: T1, acetic acid-extracted bovine type I collagen (Bos taurus, UniProt P02453+P02465); assay type: biochemical; details: for critical concentration at which collagen assembly was completely inhibited / effect on collagen assembly kinetics and ODmax / lag time (lag phase at 30% assembly) / effect on collagen assembly: 1 mg/mL collagen; for critical concentration at which collagen assembly was completely inhibited: 37° C., pH 7.3; for effect on collagen assembly kinetics and ODmax: 0.125 M; for lag time (lag phase at 30% assembly): 0.25 M total saccharide; for effect on collagen assembly: 0.5 M (each component 0.5 M for Gal with acetic acid; 0.5 M total for ratios); for Rates of Collagen Assembly (KA), 30% to 70%: n=9, ± SD
T1 construct: acetic acid-extracted bovine type I collagen; purchased Advanced Biomatrix 5026-1 KIT
Protocol: In the experiments below, acetic acid-extracted bovine type I collagen (Advanced Biomatrix, 5026-1 KIT) was mixed with monosaccharide solutions, and/or acetic acid, such that the final collagen concentration was either 0.5 or 1 mg/mL and final saccharide concentration ranged from 0-1 M. Concentrated Tris-buffered saline (10×TBS) at 0.25 M trizma base (Sigma Aldrich, T4661) and 1.3 M sodium chloride
(Fisher Chemical, S271-500), was used as 10% of the solution volume to maintain a physiological pH and ionic strength, and 0.25 M sodium hydroxide was used for a final pH adjustment to 7.3. Any remaining volume in the solution recipes was fulfilled via the addition of deionized water.
Experiments included mixing collagen with a concentrated monosaccharide solution, neutralizing it, and measuring turbidity spectrophotometrically (313 nm) over the course of two hours. In the absence of monosaccharides, 1 mg/mL collagen fully polymerized within minutes, as expected (Williams, B. R., et al., 1978). […] The increased ODmax caused by the monosaccharides cannot be fully attributed to the contribution of the monosaccharides in solution (Table 2) (Hayashi & Nagai, 1972; Wood & Keech, 1960).
To study the assembly of collagen, the kinetics of collagen assembly in the presence of monosaccharides were monitored using a plate-reader spectrophotometer (Molecular Devices, SpectraMax M5). Working in triplicate, 100 μL of the mixed collagen and saccharide solution was pipetted into a 96-well plate and layered with 100 μL of silicone oil to prevent evaporation. […] Each test condition was repeated three times for a total of n=9 data sets.
The analyze the assembly kinetics, turbidity assays were analyzed and normalized between 0-1 using Equation 1, where OD represents the optical density.
To analyze the kinetics, 0% assembly was defined as the absorbance value when the minimum absorbance was recorded, and 100% corresponded to the maximum value. 10, 30, 70 and 90% absorbance and corresponding timepoints were calculated using linear interpolation between the two bounding data points. Error bars were calculated as standard error of the mean. Rate of assembly was determined by calculating the slope between 30% and 70% assembly for each data set.

[2] = Baseline absorbance of the monosaccharide solutions without collagen; assay type: physicochemical; details: 313 nm, 37° C., no collagen, n=3
Source text: No collagen was present in these samples.

[3] = target: T2, pre-existing A546-labeled collagen network (Bos taurus, UniProt P02453+P02465); experiment: Dual-fluorescence incorporation of soluble collagen into a pre-existing collagen network (colocalization, PCC); assay type: biochemical, bovine; details: 0.5 M GlcNAc, 0.5 M Gal or 1 M GlucA; 0.025 mg/mL collagen, 1 hour, 37° C., n=10 images
T2 construct: acetic acid-extracted bovine type I collagen; purchased Advanced Biomatrix 5026-1 KIT; host or cells: extracted from bovine tissue, then labelled in house
Source text: Collagen was fluorescently labeled by the following procedure. Collagen was amine-labeled with either Alexa Fluor 546 NHS Ester (Thermo Fisher Scientific, A20002) or Alexa Fluor 488 TFP (Thermo Fisher Scientific, A30005) according to the protocol of Paten et al. (Paten, J. A., et al., 2019). Collagen was labeled with A488 solution in a 5:1 molar ratio of A488:collagen and then purified using a 10,000 MWCO Slide-A-Lyzer dialysis cassette (Thermo Fisher Scientific, 66380). The same process was performed with A546 in a 5:1 molar ratio of A546:collagen. Prior to use, the collagen concentration was determined by a modified Lowry assay (Bio-Rad, DC-Protein Assay), and the labeling efficiency was determined according to previous reports (Paten, J. A., et al., 2019).
To test if the critical saccharide concentrations would allow the soluble collagen to incorporate into a pre-existing matrix, despite the observed nucleation inhibition, first a collagen network was polymerized labeled with a A546 (red) at 37° C. using the example procedure described above. Then a mixture of A488-labeled collagen (green) with a nucleation-inhibiting concentration of either GlcNAc, Gal, or GlucA was added to the pre-existing A546-labeled collagen network. In all cases, distinct fibrillar networks of A488-collagen after a 1 hour incubation and exhaustive rinsing to reduce non-specific binding was observed.
The ability for soluble collagen to incorporate into a pre-established collagen network in the presence of monosaccharides was investigated with fluorescent imaging using an inverted microscope (Nikon, ECLIPSE Ti2) with a 0.45 numerical aperture 20× objective (Nikon, MRH08230) and a CMOS camera (Andor, Zyla 4.2). […]
The Imaging and Colocalization Analysis of the Dual-Fluorescence collagen Network was conducted using the following procedure. For imaging the A546-labeled collagen network, the excitation signal (CoolLED, PE-300-W-L-SB-40) was passed through a 530±15 nm filter, and the emission signal was detected after passing through a 575±20 nm filter (Chroma Technology, 49014). […]

[4] = target: pre-established 1 mg/mL collagen networks (Bos taurus, UniProt P02453+P02465); details: 37° C., 180 minutes, critical concentration
physchem = details: 37 °C, pH 5, aqueous buffer
[5] = carboxylic acid of GlucA; cited from earlier work
[6] = Stock solutions made near maximum solubility; details: 37 °C, pH 5, aqueous buffer
[7] = collagen 0.5 mg/mL, 0.125M saccharide
[8] = collagen 0.5 mg/mL, 0.25M saccharide
[9] = collagen 1 mg/mL, 0.125M saccharide
[10] = collagen 1 mg/mL, 0.25M saccharide

T1 sequence (P02453 162-1217 limits assumed): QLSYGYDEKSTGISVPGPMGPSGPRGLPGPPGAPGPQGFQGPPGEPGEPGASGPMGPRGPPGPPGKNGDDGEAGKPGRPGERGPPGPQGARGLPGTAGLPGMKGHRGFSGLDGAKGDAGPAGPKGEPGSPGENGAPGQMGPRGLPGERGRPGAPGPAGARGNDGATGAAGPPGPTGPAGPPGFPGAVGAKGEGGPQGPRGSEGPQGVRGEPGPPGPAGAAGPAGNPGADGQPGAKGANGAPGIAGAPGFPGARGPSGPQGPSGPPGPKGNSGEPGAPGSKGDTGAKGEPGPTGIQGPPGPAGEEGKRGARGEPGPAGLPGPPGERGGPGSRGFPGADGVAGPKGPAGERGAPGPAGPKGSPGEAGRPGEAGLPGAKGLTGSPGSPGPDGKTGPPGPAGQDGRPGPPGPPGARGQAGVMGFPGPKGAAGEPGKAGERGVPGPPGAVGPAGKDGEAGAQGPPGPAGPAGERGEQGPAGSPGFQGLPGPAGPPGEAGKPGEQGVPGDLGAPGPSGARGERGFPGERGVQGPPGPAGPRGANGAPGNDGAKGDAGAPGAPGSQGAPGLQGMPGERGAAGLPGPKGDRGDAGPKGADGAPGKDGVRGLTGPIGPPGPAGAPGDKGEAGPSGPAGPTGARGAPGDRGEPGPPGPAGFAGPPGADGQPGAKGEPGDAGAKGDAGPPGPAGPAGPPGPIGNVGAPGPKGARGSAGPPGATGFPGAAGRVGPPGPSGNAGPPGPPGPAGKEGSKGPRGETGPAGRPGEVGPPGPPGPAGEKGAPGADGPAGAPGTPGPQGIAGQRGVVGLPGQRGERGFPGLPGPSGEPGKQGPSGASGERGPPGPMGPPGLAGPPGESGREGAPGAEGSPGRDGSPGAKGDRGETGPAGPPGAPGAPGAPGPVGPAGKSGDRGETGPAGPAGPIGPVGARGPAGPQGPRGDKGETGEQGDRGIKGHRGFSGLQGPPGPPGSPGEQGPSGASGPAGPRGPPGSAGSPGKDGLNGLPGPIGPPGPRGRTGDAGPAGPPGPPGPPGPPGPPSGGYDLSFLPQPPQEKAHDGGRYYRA
T1 sequence (P02465 80-1117 limits assumed): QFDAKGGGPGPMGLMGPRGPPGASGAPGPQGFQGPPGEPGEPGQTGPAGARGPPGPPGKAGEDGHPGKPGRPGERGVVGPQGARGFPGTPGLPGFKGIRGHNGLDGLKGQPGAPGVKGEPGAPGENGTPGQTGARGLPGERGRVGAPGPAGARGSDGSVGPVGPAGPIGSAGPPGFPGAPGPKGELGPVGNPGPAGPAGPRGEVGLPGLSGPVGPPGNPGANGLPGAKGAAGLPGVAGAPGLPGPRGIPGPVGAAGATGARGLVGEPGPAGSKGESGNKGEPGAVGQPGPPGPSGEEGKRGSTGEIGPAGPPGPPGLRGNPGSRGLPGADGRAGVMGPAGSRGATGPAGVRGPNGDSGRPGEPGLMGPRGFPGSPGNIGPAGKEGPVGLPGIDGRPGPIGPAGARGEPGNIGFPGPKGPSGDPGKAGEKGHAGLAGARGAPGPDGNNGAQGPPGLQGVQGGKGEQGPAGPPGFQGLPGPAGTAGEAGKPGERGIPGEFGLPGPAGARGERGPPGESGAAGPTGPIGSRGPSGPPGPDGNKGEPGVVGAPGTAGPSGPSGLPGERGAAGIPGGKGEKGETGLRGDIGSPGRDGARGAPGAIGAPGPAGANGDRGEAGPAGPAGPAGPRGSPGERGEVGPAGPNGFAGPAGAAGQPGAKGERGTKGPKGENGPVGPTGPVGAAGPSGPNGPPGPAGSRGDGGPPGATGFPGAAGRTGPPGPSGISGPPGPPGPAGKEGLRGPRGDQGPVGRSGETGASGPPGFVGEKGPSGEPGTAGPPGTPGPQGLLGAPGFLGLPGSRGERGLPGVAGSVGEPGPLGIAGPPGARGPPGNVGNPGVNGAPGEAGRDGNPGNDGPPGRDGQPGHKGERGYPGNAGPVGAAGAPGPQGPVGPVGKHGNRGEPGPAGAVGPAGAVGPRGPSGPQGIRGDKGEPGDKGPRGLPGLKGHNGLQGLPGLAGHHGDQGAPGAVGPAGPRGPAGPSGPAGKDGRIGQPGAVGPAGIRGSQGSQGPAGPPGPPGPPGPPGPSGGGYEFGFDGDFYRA
T2 sequence (P02453 162-1217 limits assumed): as the sequence (P02453 162-1217 limits assumed) above
T2 sequence (P02465 80-1117 limits assumed): as the sequence (P02465 80-1117 limits assumed) above
Chain of pre-established 1 mg/mL collagen networks (P02453 162-1217 limits assumed): as the sequence (P02453 162-1217 limits assumed) above
Chain of pre-established 1 mg/mL collagen networks (P02465 80-1117 limits assumed): as the sequence (P02465 80-1117 limits assumed) above

Row | critical concentration at which collagen assembly was completely inhibited [1] [M] | lag time (lag phase at 30% assembly) [1] [min] | Rates of Collagen Assembly (KA), 30% to 70% [1, 7] [% per second] | Rates of Collagen Assembly (KA), 30% to 70% [1, 8] [% per second] | Rates of Collagen Assembly (KA), 30% to 70% [1, 9] [% per second] | Rates of Collagen Assembly (KA), 30% to 70% [1, 10] [% per second] | Baseline absorbance ([2]; 0.125M saccharide) | Baseline absorbance ([2]; 0.25M saccharide) | Baseline absorbance ([2]; 0.5M saccharide) | Pearson's correlation coefficient (PCC) of incorporated A488-collagen with pre-established network [3] | change in the collagen network under inverted microscope [4] | solubility (physchem) [mM] | Compound | effect on collagen assembly kinetics and ODmax [1] | effect on collagen assembly [1] | Rates of Collagen Assembly (KA), 30% to 70% ([1]; collagen 0.5 mg/mL, 0.5M saccharide) [% per second] | Rates of Collagen Assembly (KA), 30% to 70% ([1]; collagen 1 mg/mL, 0.5M saccharide) [% per second] | Baseline absorbance ([2]; 1M saccharide) | pKa [5] | solubility [6] [mM]
1 | 0.5 | 15 ± 0.6 | 14.28 ± 1.48 | 7.22 ± 0.89 | 28.71 ± 1.54 | 15.96 ± 1.39 | 0.041 ± 0.001 | 0.043 ± 0.001 | 0.044 ± 0.001 | 0.53±0.11 | minimal to no change | ~2000 (≈ 360 mg/mL) | O=C[C@H](O)[C@@H](O)[C@@H](O)[C@H](O)CO [Gal, D(+)-galactose] | a delay in the lag phase and growth phase and an increase in the maximum absorbance (ODmax) | completely inhibited collagen assembly | – | – | – | – | –
2 | 0.5 | 16 ± 2.5 | 13.32 ± 0.63 | 6.77 ± 0.31 | 17.91 ± 1.52 | 8.27 ± 0.54 | 0.061 ± 0.001 | 0.074 ± 0.001 | 0.105 ± 0.001 | 0.66±0.10 | – | ~1000 (≈ 221 mg/mL) | CC(=O)N[C@H]1C(O)O[C@H](CO)[C@@H](O)[C@@H]1O (stereo partly drawn) [GlcNAc, N-acetyl-D-glucosamine] | a delay in the lag phase and growth phase and an increase in the maximum absorbance (ODmax) | – | – | – | – | – | –
3 | – | – | – | – | – | – | – | – | – | – | – | – | CC(=O)O [acetic acid, reference compound] | – | little impact on the early kinetics but significantly reduced the steady-state absorbance | – | – | – | – | –

Row | Compound | critical concentration at which collagen assembly was completely inhibited [1] [M] | lag time (lag phase at 30% assembly) [1] [min] | Rates of Collagen Assembly (KA), 30% to 70% [1, 7] [% per second] | Rates of Collagen Assembly (KA), 30% to 70% [1, 8] [% per second] | Rates of Collagen Assembly (KA), 30% to 70% [1, 9] [% per second] | Rates of Collagen Assembly (KA), 30% to 70% [1, 10] [% per second] | Baseline absorbance ([2]; 0.125M saccharide) | Baseline absorbance ([2]; 0.25M saccharide) | Baseline absorbance ([2]; 0.5M saccharide) | Pearson's correlation coefficient (PCC) of incorporated A488-collagen with pre-established network [3] | change in the collagen network under inverted microscope [4] | solubility (physchem) [mM] | effect on collagen assembly kinetics and ODmax [1] | effect on collagen assembly [1] | Rates of Collagen Assembly (KA), 30% to 70% ([1]; collagen 0.5 mg/mL, 0.5M saccharide) [% per second] | Rates of Collagen Assembly (KA), 30% to 70% ([1]; collagen 1 mg/mL, 0.5M saccharide) [% per second] | Baseline absorbance ([2]; 1M saccharide) | pKa [5] | solubility [6] [mM]
4 | O.O=C[C@H](O)[C@@H](O)[C@H](O)[C@H](O)C(=O)[O-].[Na+] [GlucA, D-glucuronic acid sodium salt monohydrate] | 1 | – | – | 6.84 ± 0.47 | – | 13.83 ± 1.10 | – | 0.063 ± 0.000 | 0.082 ± 0.001 | 0.50±0.11 | – | – | – | – | 10.69 ± 0.53 | 40.64 ± 2.59 | 0.120 ± 0.000 | 3.2 | ~2000
